In patent US20170095565A1, “CHEMICALLY MODIFIED SMALL MOLECULES” (Nektar Therapeutics, priority 2003, published 2017):
Where a name gives a salt, the structure may show the parent alone. Read-outs that look alike come from different tables or passages of the source.

Columns and labels:
[1] = PEG-CIPRO absorption from lung after IT administration; settings: Cipro and PEG-Cipro
From the text: In vivo absorption data was collected through rat studies, in which, following IT administration to rats, whole lungs were excised and analyzed for test article concentration.

[2] = Lung residence after intratracheal administration (BAL, BAL cells, residual lung, serum); format: in vivo, rats; settings: for half-life: rat, other: intratracheal (IT), 30 μg
Procedure: To determine the effect of PEG length on residence time in the lung, a series of in vivo experiments was performed in which each PEG-FITC species was administered intratracheally (IT) to rats, and the amount remaining in the lung was determined at progressive time points. For each species, 30 μg PEG-FITC, prepared in PBS/0.5% BSA, was administered IT to rats (300 μL of a 100 μg/mL solution). […] Following the lavage, lungs were excised, and samples of serum were extracted. The resulting lavage solution was then centrifuged to pellet the cellular fraction (BAL cells) and separate it from the BAL supernatant.
Samples from BAL, BAL cells and serum were read directly in microtiter plates with no prior treatment. To quantitate PEG-FITC remaining in the residual lung material, however, the excised lungs were homogenized and PEG-FITC was extracted in ethanol.
For all samples, quantitation was performed by interpolation from a standard curve generated from known concentrations of the relevant molecule prepared in the correlating matrix. Thus for samples of BAL and BAL cells, the standard samples were prepared in 0.9% NaCl, for serum samples, the standards were prepared in commercially obtained rat serum, and for lung extracts, the standard samples were prepared in PBS: Ethanol (1:3).
For BAL studies, the total amount remaining was calculated for each animal from the product of the concentration and the BAL volume recorded. For BAL cells, the pellet was resuspended in 1 mL; the amount present was calculated accordingly. For residual lung tissue, the amount present in both lungs (μg/lung) was calculated from the product of the concentration and the homogenate volume. Note that although the nominal dose delivered in each experiment was 30 μg, the dosing solution was analyzed from the same standard curve for each experiment and the actual delivered dose was calculated. The data shown throughout this specification are thus corrected for each PEG-FITC species respectively and are represented as percentage dose administered. The doses delivered in each experiment are represented in Table VIII below.

[3] = Cell-based permeability in Calu-3 cells; format: in vitro ADME; settings: human
Procedure: In vitro cell-based experiments (in a Calu-3 assay) were performed for PEG-FITC conjugates. The Calu-3 cells were cultured with an apical air-interface to mimic the in vivo epithelium.

| Compound | Elimination from lung (rat IT) [1] [h⁻¹] | Portion of dose associated with BAL cells ([2]; 10 min) | Dose recovered in BAL ([2]; 10 min following IT administration) | Serum peak as proportion of administered dose ([2]; 10 min post dose) | Peak amount in serum ([2]; 10 min post dose, based on rat serum volume of approximately 8 mL) | Dose recovered in combined lung-derived fractions ([2]; 10 min post-dose) | Elimination from lung (rat IT) ([2]; fluorescein, PEG and PEG-FITC) [h⁻¹] | BAL k-el ([2]; rat IT, BAL supernatant) | BAL t1/2-el ([2]; rat IT, elimination half-life from BAL) [min] | half-life ([2]; bronchoalveolar lavage (BAL) supernatant, rat IT, elimination half-life from BAL, read-out: BAL t1/2-el) [min] | half-life ([2]; combined lung compartments, rat IT, combined lung compartments, read-out: Lung t1/2-el (converted)) [min] | BAL t90 ([2]; time at which 90% of the dose would be eliminated) [h] | BAL t99 ([2]; time at which 99% of the dose would be eliminated) [h] | Papp [3] [×10⁻⁶ cm/s] |
| --- | --- | --- | --- | --- | --- | --- | --- | --- | --- | --- | --- | --- | --- | --- |
| O=C(O)c1cn(C2CC2)c2cc(N3CCNCC3)c(F)cc2c1=O [Cipro HCl, ciprofloxacin] | 10.24 | – | – | – | – | – | – | – | – | – | – | – | – | – |
| O=C1OC2(c3ccc(O)cc3Oc3cc(O)ccc32)c2ccccc21 [Sodium fluorescein, sodium fluorescein] | – | approximately 13% | less than 50% | less than 10% | approximately 2 μg | less than 50% | 1.38 | 1.3253 | 31.4 | < 31.2 | 30.1 | 1.74 | 3.5 | 0.34 |
